Here are results for two compounds from patent US20080227819A1, “Method for identifying the agonistic activity of a target compound on a potassium channel” (Gruenenthal GmbH, priority 2007, published 2008).

Holding throughout (assay type): cell-based
Assay [1] concerns the target T1, KCNQ2 channels and KCNQ3 channels (Homo sapiens, UniProt O43525+O43526).
T1 construct: expressed in transfected cells; host or cells: CHO cells (Chinese hamster ovary cells)
The assay can be described thus: depolarisation assay format, voltage-sensitive fluorescent dye, CHO cells expressing KCNQ channels. As to conditions: saturating concentration of XE991 (60 μM), ΔF/F, control cells subtracted, FIG. 1. How it is done: FIG. 1: Effect of XE991 on the membrane potential of cells expressing KCNQ channels in a depolarisation assay format. The time response of the fluorescence intensity of CHO cells expressing KCNQ channels before and after the application (arrow) of a known KCNQ channel blocker (XE991, 60 μM) is depicted.
CHO cells (Chinese hamster ovary cells) expressing KCNQ2 channels and KCNQ3 channels were adherently cultivated in a nutrient medium [Minimum Essential Medium (MEM), α medium 22571 1×liquid (Invitrogen), 10% Fetal Calf Serum (FCS) (Gibco, heat inactivated), including selection antibiotics] at 37° C., 5% CO2 and 95% air humidity in cell culture bottles. […] After incubation with the dye, either 50 μl ES (control) or 50 μl of the KCNQ channel blocker XE991 in independent wells in a saturating concentration (final concentration 60 μM) were added and incubated for […] with concurrent monitoring of the fluorescence in the reader. The measurements were carried out by a Fluostar or Polarstar fluorescence reader of the company BMG or the FlexStation of the company Molecular Devices. It was excited at a wavelength of 525 nm and detected at a wavelength of 560 nm.
In FIG. 1 the time response of the fluorescence intensity of CHO cells expressing KCNQ channels before and after the application (arrow) of a known KCNQ channel blocker (XE991) is depicted. […]

Assay [2] has as its target T1, KCNQ2 channels and KCNQ3 channels. Kind of assay: ion jump assay format for searching for potassium channel blockers (potassium injection to extracellular medium). The following applies: KCl final concentration 91.8 mM, FIG. 3. How it is done:
FIG. 3: Influence of XE991 on the fluorescence response after potassium injection to the extracellular medium in a ion jump assay format for searching for potassium channel blockers. The time response of the fluorescence intensity of CHO cells expressing the KCNQ channels before and after the application (arrow) of […] potassium chloride is depicted.
The seeding of KCNQ-expressing cells in assay plates, the loading with the dye and the measurement devices to be used as well as the wavelengths to be set are in accordance with Example 1. […] Then the base line was monitored in the fluorescence reader for 3-4 min and the fluorescence values were measured for 10 min after the injection of 15 μl of a KCl solution (final concentration 91.8 mM) in each cavity of the plate.
In FIG. 3 the time response of the fluorescence intensity of CHO cells expressing the KCNQ channels before and after the application (arrow) of 91.8 mM potassium chloride is depicted. The fluorescence responses of the cells in the absence (Δ) and presence (▪) of the known KCNQ channel blocker XE991 (60 μM) are shown. The percental change in the fluorescence intensity (ΔF/F) based on the averaged fluorescence intensity before the potassium application is depicted.

Assay [3] has the same target. Kind of assay: hyperpolarisation assay format, voltage-sensitive fluorescent dye, CHO cells expressing KCNQ channels. As to conditions: retigabine 30 μM, ΔF/F, control cells subtracted, FIG. 2. As for the experimental part:
FIG. 2: Effect of retigabine on the membrane potential of cells expressing KCNQ channels in a hyperpolarisation assay format. The time response of the fluorescence intensity in CHO cells expressing KCNQ channels before and after the application (arrow) of a known KCNQ channel opener (retigabine, 30 μM) is depicted.
The cells were seeded into assay plates and loaded with the dye in exactly the same way as described in Example 1. The measurements were carried out by a Fluostar or Polarstar fluorescence reader of the company BMG or the FlexStation of the company Molecular Devices. It was excited at a wavelength of 525 nm and detected at a wavelength of 560 nm. After incubation with the dye, the base line was monitored for 5 min. Then either 50 up ES buffer (control) or 50 μl of the KCNQ agonist retigabine (30 μM) were added and the fluorescence was monitored in an appropriate reader for 7.5 min.
In FIG. 2 the time response of the fluorescence intensity of CHO cells expressing KCNQ channels before and after the application (arrow) of the known KCNQ channel opener (retigabine, 30 μM) is depicted. The percental change in the fluorescence intensity (ΔF/F) based on the averaged fluorescence intensity before the application of retigabine is depicted. The course of the fluorescence of the control cells (application of buffer) was subtracted from the retigabine-induced fluorescence signal.

SMILES strings stand for the structures.

T1 sequence (O43525 whole entry): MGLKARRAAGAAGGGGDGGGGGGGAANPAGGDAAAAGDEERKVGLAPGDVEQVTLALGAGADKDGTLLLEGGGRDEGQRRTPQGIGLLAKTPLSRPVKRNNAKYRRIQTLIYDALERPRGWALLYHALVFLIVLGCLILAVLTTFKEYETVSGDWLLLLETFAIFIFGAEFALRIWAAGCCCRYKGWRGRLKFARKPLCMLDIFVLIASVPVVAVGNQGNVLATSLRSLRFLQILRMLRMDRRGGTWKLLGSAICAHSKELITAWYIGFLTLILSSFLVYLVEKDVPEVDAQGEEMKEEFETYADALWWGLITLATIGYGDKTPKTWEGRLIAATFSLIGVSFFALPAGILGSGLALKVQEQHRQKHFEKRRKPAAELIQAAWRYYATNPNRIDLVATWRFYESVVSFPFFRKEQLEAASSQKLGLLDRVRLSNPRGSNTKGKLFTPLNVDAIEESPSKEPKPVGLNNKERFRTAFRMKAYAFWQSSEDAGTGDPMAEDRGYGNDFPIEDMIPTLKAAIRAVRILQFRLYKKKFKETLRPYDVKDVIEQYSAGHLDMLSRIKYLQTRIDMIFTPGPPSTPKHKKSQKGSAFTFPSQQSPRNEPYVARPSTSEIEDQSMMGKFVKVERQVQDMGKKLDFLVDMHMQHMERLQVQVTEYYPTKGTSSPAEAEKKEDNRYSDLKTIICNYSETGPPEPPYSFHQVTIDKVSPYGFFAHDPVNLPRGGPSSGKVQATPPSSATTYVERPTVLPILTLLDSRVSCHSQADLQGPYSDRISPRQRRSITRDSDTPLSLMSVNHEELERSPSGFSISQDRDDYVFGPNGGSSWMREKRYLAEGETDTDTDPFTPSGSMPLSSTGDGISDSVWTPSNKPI
T1 sequence (O43526 whole entry): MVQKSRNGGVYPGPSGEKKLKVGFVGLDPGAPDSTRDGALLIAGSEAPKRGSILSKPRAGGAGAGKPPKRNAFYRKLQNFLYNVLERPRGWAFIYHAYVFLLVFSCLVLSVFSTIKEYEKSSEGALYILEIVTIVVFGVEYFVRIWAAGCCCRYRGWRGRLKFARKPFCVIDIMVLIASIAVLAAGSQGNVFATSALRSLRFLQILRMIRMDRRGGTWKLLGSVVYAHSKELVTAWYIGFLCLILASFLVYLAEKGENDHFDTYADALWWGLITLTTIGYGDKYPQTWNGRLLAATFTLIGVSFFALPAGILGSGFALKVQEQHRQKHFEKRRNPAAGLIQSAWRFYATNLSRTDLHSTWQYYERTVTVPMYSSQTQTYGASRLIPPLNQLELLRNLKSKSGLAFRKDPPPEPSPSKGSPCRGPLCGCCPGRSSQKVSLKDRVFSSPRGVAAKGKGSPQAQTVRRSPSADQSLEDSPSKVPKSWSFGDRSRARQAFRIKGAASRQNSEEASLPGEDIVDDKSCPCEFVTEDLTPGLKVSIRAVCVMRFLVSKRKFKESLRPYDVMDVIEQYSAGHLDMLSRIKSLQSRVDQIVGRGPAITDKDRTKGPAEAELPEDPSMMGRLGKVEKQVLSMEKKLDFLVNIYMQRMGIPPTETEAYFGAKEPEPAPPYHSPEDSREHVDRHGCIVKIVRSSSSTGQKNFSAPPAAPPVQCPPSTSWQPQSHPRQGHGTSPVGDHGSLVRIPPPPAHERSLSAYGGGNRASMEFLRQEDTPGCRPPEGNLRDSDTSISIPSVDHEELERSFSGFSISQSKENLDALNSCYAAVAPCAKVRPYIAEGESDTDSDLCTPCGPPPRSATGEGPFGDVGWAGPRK

For `O=C1c2ccccc2C(Cc2ccncc2)(Cc2ccncc2)c2ccccc21` [XE991], the “increase in the fluorescence intensity after application of the KCNQ channel blocker” value in assay [1] is “about 55%”. In addition, the “difference of the amplitudes of the fluorescence responses in the presence and in the absence of a KCNQ channel blocker (dynamic range of the assay)” value in assay [2] (XE991 60 μM vs control cells) is on record as “about 80%”. In addition, the “fluorescence response after the potassium application in the presence of the blocker” value in assay [2] (saturating concentration of XE991 (60 μM), 30 min, control cells show increase by about 80%) is listed as “no increase in the fluorescence”.
`CCOC(=O)Nc1ccc(NCc2ccc(F)cc2)cc1N` [retigabine]: the “decrease in the fluorescence intensity after application of retigabine” value in assay [3] is listed as 35-40%.
